# Assay results taken from patent publication US20160016951A1 (Merck Patent GmbH, priority 2014, published 2016).
# Where a name gives a salt, the structure may show the parent alone.
# Target: T1, CDK8 (CDK8/CycC) (Homo sapiens, UniProt P49336)
# T1 construct: purchased Invitrogen PV4402
# Assay: FRET based Lanthascreen binding competition assay
# Settings: not given
# Protocol: FRET based Lanthascreen binding competition assay: A dye-labeled ATP competitive probe served as a FRET acceptor upon binding to CDK8 labeled with a strepavidin —Eu-chelate (via abiotinylated anti His antibody). […] In case this probe was competed by an inhibitor as such a signal cannot be generated any more. The CDK8 used for this assay was a protein co-expressed with CycC.
# The assay procedure for an assay in a 1536 well plate was performed according to the following: 2 μL CDK8/biotin-anti-His Ab/SA-Eu mix in Assay buffer were pipetted into the wells of a micro plate.
# 1 μL compound in 20 mM Hepes buffer/5% DMSO was added. The plate was shaken for 30 sec and incubated for 20 min at RT. 2 μL Alexa647-probe in assay buffer were added. The plate was shaken for 30 sec again and incubated for 60 min at RT in the dark. Then the plate was read out on a Perkin Elmer Envision (mode LANCE/TRF, excitation 340 nm emission 650 nm).
# T1 sequence (P49336 whole entry): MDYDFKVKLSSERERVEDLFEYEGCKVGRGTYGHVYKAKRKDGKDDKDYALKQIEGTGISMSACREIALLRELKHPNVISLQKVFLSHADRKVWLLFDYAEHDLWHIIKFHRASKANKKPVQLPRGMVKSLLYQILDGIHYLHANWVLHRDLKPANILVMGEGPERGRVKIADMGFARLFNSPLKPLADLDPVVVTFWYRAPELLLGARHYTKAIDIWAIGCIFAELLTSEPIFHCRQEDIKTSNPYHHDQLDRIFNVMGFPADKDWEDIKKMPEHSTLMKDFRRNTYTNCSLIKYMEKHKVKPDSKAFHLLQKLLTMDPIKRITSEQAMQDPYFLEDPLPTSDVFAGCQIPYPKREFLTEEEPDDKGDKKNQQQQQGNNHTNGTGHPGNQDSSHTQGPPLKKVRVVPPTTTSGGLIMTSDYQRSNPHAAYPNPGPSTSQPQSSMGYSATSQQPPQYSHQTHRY
# T1 sequence (P24863 whole entry partner): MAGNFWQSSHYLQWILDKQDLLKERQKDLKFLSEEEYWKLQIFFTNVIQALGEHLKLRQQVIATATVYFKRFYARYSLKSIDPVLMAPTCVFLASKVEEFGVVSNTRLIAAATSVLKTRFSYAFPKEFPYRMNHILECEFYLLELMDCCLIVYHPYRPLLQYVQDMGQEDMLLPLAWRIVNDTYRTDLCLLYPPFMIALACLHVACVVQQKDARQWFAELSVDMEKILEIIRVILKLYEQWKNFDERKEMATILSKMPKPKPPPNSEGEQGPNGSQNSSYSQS
row,SMILES,IC50
1,"Cn1cc(-c2ccc(-c3cncc4ccc(C(=O)O)cc34)cc2)cn1 [Compound 95, 4-(4-(1-methyl-1H-pyrazol-4-yl)phenyl)isoquinoline-6-carboxylic acid hydrochloride]",< 10 nM

# Same assay, conditions: 5 nM CDK8/CycC, 10 nM Alexa647-Tracer, 1% DMSO, 60 min at RT; read-out: IC50 CDK8 binding
row,SMILES,IC50
1,"COC1CN(C(=O)c2ccc3cncc(-c4ccc5c(cnn5CC(C)(C)O)c4)c3n2)C1 [Compound 52, (8-(1-(2-hydroxy-2-methylpropyl)-1H-indazol-5-yl)-1,6-naphthyridin-2-yl)(3-methoxyazetidin-1-yl)methanone]",10 to 100 nM
2,"CNCc1ccc2cncc(-c3ccc4c(c3)CS(=O)(=O)N4C)c2n1 [Compound 53, Methyl-[8-(1-methyl-2,2-dioxo-2,3-dihydro-1H-benzo[c]isothiazol-5-yl)-[1,6]naphthyridin-2-ylmethyl]-amine]",10 to 100 nM
3,"O=C(c1ccc2cnccc2n1)N1CCC[C@H]1c1ccccc1 [Compound 54, (S)-(1,6-naphthyridin-2-yl)(2-phenylpyrrolidin-1-yl)methanone]",10 to 100 nM
4,"CNc1ccc2cncc(-c3ccc(-c4cnn(C)c4)cc3)c2n1 [Compound 56, N-methyl-8-(4-(1-methyl-1H-pyrazol-4-yl)phenyl)-1,6-naphthyridin-2-amine]",101 to 500 nM
5,"COC1CN(C(=O)c2ccc3cncc(-c4ccc(-c5cc(C(F)(F)F)nn5C)cc4)c3n2)C1 [Compound 57, (3-methoxyazetidin-1-yl)(8-(4-(1-methyl-3-(trifluoromethyl)-1H-pyrazol-5-yl)phenyl)-1,6-naphthyridin-2-yl)methanone]",101 to 500 nM
6,"CN1c2ccc(-c3cnc(N)c4ccc(CO)nc34)cc2CS1(=O)=O [Compound 58, [5-Amino-8-(1-methyl-2,2-dioxo-2,3-dihydro-1H-benzo[c]isothiazol-5-yl)-[1,6]naphthyridin-2-yl]-methanol]",101 to 500 nM
7,"CN(C)C(=O)c1ccc2c(N)ncc(-c3ccc4c(c3)CS(=O)(=O)N4)c2n1 [Compound 59, 5-amino-8-(2,2-dioxido-1,3-dihydrobenzo[c]isothiazol-5-yl)-N,N-dimethyl-1,6-naphthyridine-2-carboxamide]",101 to 500 nM
8,"Cc1ncc(-c2ccc(-c3cnn(C)c3)cc2)c2nc(C(N)=O)ccc12 [Compound 61, 5-Methyl-8-(4-(1-methyl-1H-pyrazol-4-yl)phenyl)-1,6-naphthyridine-2-carboxamide]",101 to 500 nM
9,"Cc1cncc2ccc(C(=O)N[C@@H](C)c3ccccc3)nc12 [Compound 62, (S)-8-methyl-N-(1-phenylethyl)-1,6-naphthyridine-2-carboxamide]",101 to 500 nM
10,"CNC(=O)c1ccc2c(O)ncc(-c3ccc4c(c3)CS(=O)(=O)N4)c2n1 [Compound 63, 8-(2,2-dioxido-1,3-dihydrobenzo[c]isothiazol-5-yl)-5-hydroxy-N-methyl-1,6-naphthyridine-2-carboxamide]",101 to 500 nM
11,"Cc1cc(C(N)=O)nc2c(-c3ccc(-c4cnn(C)c4)cc3)cncc12 [Compound 64, 4-Methyl-8-(4-(1-methyl-1H-pyrazol-4-yl)phenyl)-1,6-naphthyridine-2-carboxamide]",101 to 500 nM
12,"Cc1ccc2cncc(-c3ccc4c(c3)CS(=O)(=O)N4C)c2n1 [Compound 65, 1-Methyl-5-(2-methyl-1,6-naphthyridin-8-yl)-1,3-dihydrobenzo[c]isothiazole 2,2-dioxide]",101 to 500 nM
13,"Cn1cc(-c2ccc(-c3c(Cl)ncc4ccc(C(N)=O)nc34)cc2)cn1 [Compound 66, 7-Chloro-8-(4-(1-methyl-1H-pyrazol-4-yl)phenyl)-1,6-naphthyridine-2-carboxamide]",101 to 500 nM
14,"Cn1cc(-c2ccc(-c3cncc4ccc(C(=O)N5CCC[C@H]5c5ccc(Cl)cc5)nc34)cc2)cn1 [Compound 67, (S)-(2-(4-chlorophenyl)pyrrolidin-1-yl)(8-(4-(1-methyl-1H-pyrazol-4-yl)phenyl)-1,6-naphthyridin-2-yl)methanone]",101 to 500 nM
15,"Cn1cc(-c2ccc(-c3c(Cl)ncc4ccc(C(=N)N)nc34)cc2)cn1 [Compound 68, 7-chloro-8-(4-(1-methyl-1H-pyrazol-4-yl)phenyl)-1,6-naphthyridine-2-carboximidamide]",101 to 500 nM
16,"C[C@H](NC(=O)c1ccc2cncc(Br)c2n1)c1ccccc1 [Compound 70, (S)-8-bromo-N-(1-phenylethyl)-1,6-naphthyridine-2-carboxamide]",101 to 500 nM
17,"CN1c2ccc(-c3cncc4ccc(CN)nc34)cc2CS1(=O)=O [Compound 71, C-[8-(1-Methyl-2,2-dioxo-2,3-dihydro-1H-benzo[c]isothiazol-5-yl)-[1,6]naphthyridin-2-yl]-methylamine]",101 to 500 nM
18,"Cn1cc(-c2ccc(-c3cncc4ccc(N5CCNCC5)nc34)cc2)cn1 [Compound 72, 8-(4-(1-methyl-1H-pyrazol-4-yl)phenyl)-2-(piperazin-1-yl)-1,6-naphthyridine]",501 to 1000 nM
19,"COCCNC(=O)c1ccc2cncc(-c3ccc(-c4cnn(C)c4)cc3)c2n1 [Compound 74, N-(2-Methoxyethyl)-8-(4-(1-methyl-1H-pyrazol-4-yl)phenyl)-1,6-naphthyridine-2-carboxamide]",< 10 nM

row,SMILES,IC50
1,"CN(O)C(=O)c1ccc2cncc(-c3ccc(-c4cnn(C)c4)cc3)c2n1 [Compound 76, N-Hydroxy-N-methyl-8-(4-(1-methyl-1H-pyrazol-4-yl)phenyl)-1,6-naphthyridine-2-carboxamide]",< 10 nM
2,"Cn1cc(-c2ccc(-c3cncc4ccc(S)nc34)cc2)cn1 [Compound 77, 8-(4-(1-methyl-1H-pyrazol-4-yl)phenyl)-1,6-naphthyridine-2-thiol]",10 to 100 nM
3,"Cn1cc(-c2ccc(-c3cncc4ccc(O)nc34)cc2)cn1 [Compound 79, 8-(4-(1-methyl-1H-pyrazol-4-yl)phenyl)-1,6-naphthyridin-2-ol]",501 to 1000 nM
4,"COc1ccc(CNC(=O)c2ccc3cncc(-c4ccc(-c5cnn(C)c5)cc4)c3n2)cc1 [Compound 81, N-(4-methoxybenzyl)-8-(4-(1-methyl-1H-pyrazol-4-yl)phenyl)-1,6-naphthyridine-2-carboxamide]",10 to 100 nM
5,"Cn1cc(-c2ccc(-c3cncc4ccc(C(=O)N5CCCC(F)(F)C5)nc34)cc2)cn1 [Compound 82, (3,3-difluoropiperidin-1-yl)(8-(4-(1-methyl-1H-pyrazol-4-yl)phenyl)-1,6-naphthyridin-2-yl)methanone]",10 to 100 nM
6,"Cc1cncc2ccc(C(=O)N3CCC[C@H]3c3ccc(Cl)cc3)nc12 [Compound 83, (S)-(2-(4-chlorophenyl)pyrrolidin-1-yl)(8-methyl-1,6-naphthyridin-2-yl)methanone]",< 10 nM
7,"O=C(c1ccc2cnccc2n1)N1CCC[C@H]1c1ccc(Br)cc1 [Compound 84, (S)-(2-(4-bromophenyl)pyrrolidin-1-yl)(1,6-naphthyridin-2-yl)methanone]",10 to 100 nM
8,"Cn1cc(-c2ccc(-c3cncc4ccc(C(=O)NCc5ccc(C(F)(F)F)cc5)nc34)cc2)cn1 [Compound 87, 8-(4-(1-methyl-1H-pyrazol-4-yl)phenyl)-N-(4-(trifluoromethyl)benzyl)-1,6-naphthyridine-2-carboxamide]",10 to 100 nM
9,"Cc1cnc(N)c2ccc(C(=O)N3CCC[C@H]3c3ccc(Cl)cc3)nc12 [Compound 88, (S)-(5-amino-8-methyl-1,6-naphthyridin-2-yl)(2-(4-chlorophenyl)pyrrolidin-1-yl)methanone]",10 to 100 nM
10,"O=C(c1ccc2cncc(Br)c2n1)N1CCC[C@H]1c1ccc(Br)cc1 [Compound 89, (S)-(8-bromo-1,6-naphthyridin-2-yl)(2-(4-bromophenyl)pyrrolidin-1-yl)methanone]",10 to 100 nM
11,"O=C(c1ccc2cncc(Br)c2n1)N1CCC[C@H]1c1ccc(F)cc1 [Compound 90, (S)-(8-bromo-1,6-naphthyridin-2-yl)(2-(4-fluorophenyl)pyrrolidin-1-yl)methanone]",10 to 100 nM
12,"O=C(c1ccc2cncc(Br)c2n1)N1CCC[C@H]1c1ccc(C(F)(F)F)cc1 [Compound 91, (S)-(8-bromo-1,6-naphthyridin-2-yl)(2-(4-(trifluoromethyl)phenyl)pyrrolidin-1-yl)methanone]",10 to 100 nM
13,"Cc1cncc2ccc(C(=O)N3CCC[C@H]3c3ccc(Br)cc3)nc12 [Compound 92, (S)-(2-(4-bromophenyl)pyrrolidin-1-yl)(8-methyl-1,6-naphthyridin-2-yl)methanone]",< 10 nM
14,"CN1c2ccc(-c3cncc4ccc(-c5nccn5C)cc34)cc2CS1(=O)=O [Compound 93, 1-methyl-5-(6-(1-methyl-1H-imidazol-2-yl)isoquinolin-4-yl)-1,3-dihydrobenzo[c]isothiazole 2,2-dioxide]",< 10 nM
15,"Cn1cc(-c2ccc(-c3cncc4ccc(C(N)=O)cc34)cc2)cn1 [Compound 96, 4-(4-(1-methyl-1H-pyrazol-4-yl)phenyl)isoquinoline-6-carboxamide]",< 10 nM
16,"CC(C)(O)Cn1cc(-c2ccc(-c3cncc4ccc(C(N)=O)cc34)cc2)cn1 [Compound 97, 4-(4-(1-(2-hydroxy-2-methylpropyl)-1H-pyrazol-4-yl)phenyl)isoquinoline-6-carboxamide]",< 10 nM
17,"Cn1cc(-c2ccc(-c3cncc4ccc(NS(C)(=O)=O)cc34)cc2)cn1 [Compound 98, N-{4-[4-(1-Methyl-1H-pyrazol-4-yl)-phenyl]-isoquinolin-6-yl}-methanesulfonamide]",< 10 nM
18,"CN1c2ccc(-c3cncc4ccccc34)cc2CS1(=O)=O [Compound 100, 5-(isoquinolin-4-yl)-1-methyl-1,3-dihydrobenzo[c]isothiazole 2,2-dioxide]",< 10 nM
